Source: patent publication US10583121B2, “Patch” (HISAMITSU PHARMACEUTICAL CO., INC., priority 2012, dated 2020)
Structures can show the parent of a compound that is named as a salt.

Assay: Oral (sublingual) administration of 5 mg asenapine maleate, plasma AUC and adverse effects
Type: in vivo, healthy adult men
Procedure: Furthermore, in a case where the patch obtained in Example 1 was administered, the incidence proportion of adverse effects on the cardiovascular system in the AUC measurement test was 6%. Note that when 5 mg of asenapine maleate was orally administered (sublingual administration) to the healthy adult men (18 people), the average value of the area under plasma concentration-time curve of the free asenapine for a period between 10 minutes and 72 hours after the administration (AUC0.17-72) was 32,074 pg·hr/mL, the average value of the AUC0.17-72 of the N-desmethyl asenapine was 14,299 pg·hr/mL, and the incidence proportion of adverse effects on the cardiovascular system was 39%.

For `CN1C[C@@H]2c3ccccc3Oc3ccc(Cl)cc3[C@H]2C1` (relative stereo) [asenapine maleate, trans-5-chloro-2-methyl-2,3,3a,12b-tetrahydro-1H-dibenz[2,3:6,7]oxepino[4,5-c]pyrrole], the “AUC0.17-72 of the free asenapine” value (10 minutes to 72 hours after administration) was 32,074 pg·hr/mL and the “incidence proportion of adverse effects on the cardiovascular system” value (healthy adult men (18 people)) was 39%.
